Earlier results in PubChem BioAssay AID1259409 (Chemical Carcinogenesis Research Information System (CCRIS), 2018).

Test system: rodent chemically induced tumor inhibition, incidence and multiplicity
Assay: CCRIS tumor inhibitor studies
Settings: Dose [Inhibitor]: 0, Promoter: NONE USED

SMILES: C=C(C)[C@H]1CC=C(C)CC1
- tumour outcome (control, treated, inhibition, significance) (Carcinogen: METHYLCHOLANTHRENE, 56-49-5, 0.5 ML 1/WK FOR 1 YR BEGINNING POST CARCINOGEN TREATMENT (STUDY DURATION: 24 MO), Route [Inhibitor]: GAVAGE, Species: MOUSE, Strain/Sex: SWISS/MALE, Target Tissue: Type of Lesion: SKIN: SARCOMA AND CARCINOMA, Dose [Carcinogen]: 0.01 MG ON D 1, 7, 14 AND 21 AFTER BIRTH): 5/13 (38%), 2/14 (14%), 63%, not calculated
- tumour outcome (control, treated, inhibition, significance) (Carcinogen: METHYLCHOLANTHRENE, 56-49-5, 0.5 ML 1/WK FOR 1 YR BEGINNING POST CARCINOGEN TREATMENT (STUDY DURATION: 24 MO), Route [Inhibitor]: GAVAGE, Species: MOUSE, Strain/Sex: SWISS/MALE, Target Tissue: Type of Lesion: SPLEEN: LYMPHOMA, Dose [Carcinogen]: 0.01 MG ON D 1, 7, 14 AND 21 AFTER BIRTH): 2/13 (15%), 3/14 (21%), -40%, not calculated
- tumour outcome (control, treated, inhibition, significance) (Carcinogen: N-ETHYL-N-HYDROXYETHYLNITROSAMINE, 13147-25-6, 150 MG/KG/D IN CORN OIL 5 D/WK FOR 30 WK BEGINNING POST CARCINOGEN TREATMENT (STUDY DURATION: 32 WK), Route [Inhibitor]: GAVAGE, Species: RAT, Strain/Sex: F344/MALE, Target Tissue: Type of Lesion: LIVER: TUMOR, Dose [Carcinogen]: 500 PPM IN DRINKING WATER FOR 2 WK): 26/30 (87%), 17/31 (55%), 37%, p<0.01
- tumour outcome (control, treated, inhibition, significance) (Carcinogen: N-NITROSOMETHYLUREA, 684-93-5, 5% IN DIET BEGINNING 1 WK POST CARCINOGEN TREATMENT AND CONTINUING FOR DURATION OF STUDY (STUDY DURATION: 23 WK), Route [Inhibitor]: ORAL, Species: RAT, Strain/Sex: WISTAR/FEMALE, Target Tissue: Type of Lesion: MAMMARY GLAND: TUMOR, Dose [Carcinogen]: 50 MG/KG ONCE): 80%, 50%, 38%, p<0.001
- tumour outcome (control, treated, inhibition, significance) (Carcinogen: N-NITROSOMETHYLUREA, 684-93-5, 5% IN DIET BEGINNING 2 WK PRIOR TO CARCINOGEN TREATMENT AND CONTINUING FOR DURATION OF STUDY (STUDY DURATION: 23 WK), Route [Inhibitor]: ORAL, Species: RAT, Strain/Sex: WISTAR/FEMALE, Target Tissue: Type of Lesion: MAMMARY GLAND: TUMOR, Dose [Carcinogen]: 50 MG/KG ONCE): 80%, 45%, 47%, p<0.001
- tumour outcome (control, treated, inhibition, significance) (Carcinogen: N-NITROSOMETHYLUREA, 684-93-5, 5% IN DIET FOR 2 WK PRIOR TO AND 1 WK POST CARCINOGEN TREATMENT (STUDY DURATION: 23 WK), Route [Inhibitor]: ORAL, Species: RAT, Strain/Sex: WISTAR/FEMALE, Target Tissue: Type of Lesion: MAMMARY GLAND: TUMOR, Dose [Carcinogen]: 50 MG/KG ONCE): 80%, 74%, 8%, not significant
- tumour outcome (control, treated, inhibition, significance) (Carcinogen: SAFROLE, 94-59-7, 0.5 ML 1/WK FOR 1 YR BEGINNING POST CARCINOGEN TREATMENT (STUDY DURATION: 24 MO), Route [Inhibitor]: GAVAGE, Species: MOUSE, Strain/Sex: SWISS/FEMALE, Target Tissue: Type of Lesion: LUNG: PAPILLARY ADENOCARCINOMA, Dose [Carcinogen]: 0.2 MG ON D 1 AND 7 AFTER BIRTH THEN 0.4 MG ON D 14 AND 21): 3/18 (17%), 2/19 (11%), 35%, not calculated
- tumour outcome (control, treated, inhibition, significance) (Carcinogen: SAFROLE, 94-59-7, 0.5 ML 1/WK FOR 1 YR BEGINNING POST CARCINOGEN TREATMENT (STUDY DURATION: 24 MO), Route [Inhibitor]: GAVAGE, Species: MOUSE, Strain/Sex: SWISS/FEMALE, Target Tissue: Type of Lesion: SKIN: SARCOMA, Dose [Carcinogen]: 0.2 MG ON D 1 AND 7 AFTER BIRTH THEN 0.4 MG ON D 14 AND 21): 2/18 (11%), 0/19 (0%), 100%, not calculated
- tumour outcome (control, treated, inhibition, significance) (Carcinogen: SAFROLE, 94-59-7, 0.5 ML 1/WK FOR 1 YR BEGINNING POST CARCINOGEN TREATMENT (STUDY DURATION: 24 MO), Route [Inhibitor]: GAVAGE, Species: MOUSE, Strain/Sex: SWISS/MALE, Target Tissue: Type of Lesion: LIVER: HEPATOCELLULAR CARCINOMA, Dose [Carcinogen]: 0.2 MG ON D 1 AND 7 AFTER BIRTH THEN 0.4 MG ON D 14 AND 21): 7/24 (29%), 0/24 (0%), 100%, p<0.005
- tumour outcome (control, treated, inhibition, significance) (Carcinogen: SAFROLE, 94-59-7, 0.5 ML 1/WK FOR 1 YR BEGINNING POST CARCINOGEN TREATMENT (STUDY DURATION: 24 MO), Route [Inhibitor]: GAVAGE, Species: MOUSE, Strain/Sex: SWISS/MALE, Target Tissue: Type of Lesion: LUNG: PAPILLARY ADENOCARCINOMA, Dose [Carcinogen]: 0.2 MG ON D 1 AND 7 AFTER BIRTH THEN 0.4 MG ON D 14 AND 21): 5/24 (21%), 1/24 (4%), 81%, not calculated
- tumour outcome (control, treated, inhibition, significance) (Carcinogen: SAFROLE, 94-59-7, 0.5 ML 1/WK FOR 1 YR BEGINNING POST CARCINOGEN TREATMENT (STUDY DURATION: 24 MO), Route [Inhibitor]: GAVAGE, Species: MOUSE, Strain/Sex: SWISS/MALE, Target Tissue: Type of Lesion: SKIN: SARCOMA, Dose [Carcinogen]: 0.2 MG ON D 1 AND 7 AFTER BIRTH THEN 0.4 MG ON D 14 AND 21): 2/24 (8%), 0/24 (0%), 100%, not calculated
- tumour outcome (control, treated, inhibition, significance) (Carcinogen: SAFROLE, 94-59-7, 0.5 ML 1/WK FOR 1 YR BEGINNING POST CARCINOGEN TREATMENT (STUDY DURATION: 24 MO), Route [Inhibitor]: GAVAGE, Species: MOUSE, Strain/Sex: SWISS/MALE, Target Tissue: Type of Lesion: SPLEEN: LYMPHOMA, Dose [Carcinogen]: 0.2 MG ON D 1 AND 7 AFTER BIRTH THEN 0.4 MG ON D 14 AND 21): 6/24 (25%), 1/24 (4%), 84%, not calculated
- tumour outcome (control, treated, inhibition, significance) (Carcinogen: SAFROLE, 94-59-7, 0.5 ML 1/WK FOR 1 YR BEGINNING POST CARCINOMA TREATMENT (STUDY DURATION: 24 MO), Route [Inhibitor]: GAVAGE, Species: MOUSE, Strain/Sex: SWISS/FEMALE, Target Tissue: Type of Lesion: SPLEEN: LYMPHOMA, Dose [Carcinogen]: 0.2 MG ON D 1 AND 7 AFTER BIRTH THEN 0.4 MG ON D 14 AND 21): 9/18 (50%), 2/19 (11%), 78%, not calculated
- tumour outcome (control, treated, inhibition, significance) (Carcinogen: TANNIC ACID, 1401-55-4, 0.5 ML 1/WK FOR 1 YR BEGINNING POST CARCINOGEN TREATMENT (STUDY DURATION: 24 MO), Route [Inhibitor]: GAVAGE, Species: MOUSE, Strain/Sex: SWISS/FEMALE, Target Tissue: Type of Lesion: LUNG: PAPILLARY ADENOCARCINOMA, Dose [Carcinogen]: 25 MG/KG BW ON D 1, 7, 14 AND 21 AFTER BIRTH): 2/8 (25%), 0/9 (0%), 100%, not calculated
- tumour outcome (control, treated, inhibition, significance) (Carcinogen: TANNIC ACID, 1401-55-4, 0.5 ML 1/WK FOR 1 YR BEGINNING POST CARCINOGEN TREATMENT (STUDY DURATION: 24 MO), Route [Inhibitor]: GAVAGE, Species: MOUSE, Strain/Sex: SWISS/FEMALE, Target Tissue: Type of Lesion: SPLEEN: LYMPHOMA, Dose [Carcinogen]: 25 MG/KG BW ON D 1, 7, 14 AND 21 AFTER BIRTH): 4/8 (50%), 3/9 (33%), 34%, not calculated
- tumour outcome (control, treated, inhibition, significance) (Carcinogen: TANNIC ACID, 1401-55-4, 0.5 ML 1/WK FOR 1 YR BEGINNING POST CARCINOGEN TREATMENT (STUDY DURATION: 24 MO), Route [Inhibitor]: GAVAGE, Species: MOUSE, Strain/Sex: SWISS/MALE, Target Tissue: Type of Lesion: LUNG: PAPILLARY ADENOCARCINOMA, Dose [Carcinogen]: 25 MG/KG BW ON D 1, 7, 14 AND 21 AFTER BIRTH): 3/12 (25%), 0/12 (0%), 100%, not calculated
- tumour outcome (control, treated, inhibition, significance) (Carcinogen: TANNIC ACID, 1401-55-4, 0.5 ML 1/WK FOR 1 YR BEGINNING POST CARCINOGEN TREATMENT (STUDY DURATION: 24 MO), Route [Inhibitor]: GAVAGE, Species: MOUSE, Strain/Sex: SWISS/MALE, Target Tissue: Type of Lesion: SPLEEN: LYMPHOMA, Dose [Carcinogen]: 25 MG/KG BW ON D 1, 7, 14 AND 21 AFTER BIRTH): 5/12 (42%), 3/12 (25%), 40%, not calculated
